How the values were obtained:
SARS-CoV-2 S protein = SARS-CoV-2 S protein (Severe acute respiratory syndrome coronavirus 2, UniProt P0DTC2); experiment: cell-based; conditions: HEK-293T, read-out: IC90, inhibition of S-mediated fusion
SARS-CoV-2 = conditions: 72 h

With CC[C@H](C)[C@H](NC(=O)[C@H](C)NC(=O)[C@H](CCC(=O)O)NC(=O)[C@H](CCC(=O)O)NC(=O)[C@H](CC(C)C)NC(=O)[C@H](CCCCN)NC(=O)[C@H](CCCCN)NC(=O)[C@H](CCSC)NC(=O)[C@H](CCC(=O)O)NC(=O)[C@H](Cc1ccc(O)cc1)NC(=O)[C@H](CCC(=O)O)NC(=O)[C@H](CC(C)C)NC(=O)[C@H](CC(=O)O)NC(=O)[C@H](CC(C)C)NC(=O)[C@H](Cc1ccccc1)NC(=O)[C@@H](NC(=O)[C@@H](NC(=O)[C@H](CC(N)=O)NC(=O)[C@@H](NC(=O)[C@H](CCC(N)=O)NC(=O)[C@H](CC(=O)O)NC(=O)[C@H](CC(C)C)NC(=O)[C@H](CO)NC(C)=O)[C@@H](C)CC)C(C)C)[C@@H](C)O)C(=O)N[C@@H](CCCCN)C(=O)N[C@@H](CCCCN)C(=O)N[C@@H](CC(C)C)C(=O)N[C@@H](CCC(=O)O)C(=O)N[C@@H](CCC(=O)O)C(=O)N[C@@H](CO)C(=O)N[C@@H](Cc1ccc(O)cc1)C(=O)N[C@H](C(=O)N[C@@H](CC(=O)O)C(=O)N[C@@H](CC(C)C)C(=O)N[C@@H](CCCCN)C(=O)N[C@@H](CCC(=O)O)C(=O)N[C@@H](CC(C)C)C(=O)NCC(=O)N[C@@H](CO)C(=O)NCC(=O)N[C@@H](CO)C(=O)NCC(=O)N[C@@H](CSCC(=O)NCCOCCOCCOCCOCCC(=O)O[C@H]1CC[C@@]2(C)C(=CC[C@H]3[C@@H]4CC[C@H]([C@H](C)CCCC(C)C)[C@@]4(C)CC[C@@H]32)C1)C(N)=O)[C@@H](C)CC [EK1 lipopeptide] the IC90 (SARS-CoV-2 S protein) was greater than 0.9 µM, the “toxicity (MTT assay)” value (Vero E6 cells) was less than 20% and the IC50 (SARS-CoV-2) was roughly 0.08 µM.

Source: patent publication US20250257099A1 (priority 2022, published 2025)
